Test results published in patent US10617693B2, “Methods of treating and/or preventing actinic keratosis” (Athenex, Inc., priority 2017, dated 2020).

Tested on: subjects with AK on the dorsal forearm
Assay: Phase 1 study KX01-AK-01-US: local skin reactions (investigator score 0 none to 4 severe; subject score 0 none to 3 severe) and adverse events
[1] = Cohort 3: 0.5 mg/25 cm^2 QD x5 days, N=8
[2] = Cohort 4: 2 mg/100 cm^2 QD x5 days, N=8

Description: A Phase 1, single-center, safety, tolerability and pharmacokinetic study of KX-01 was performed on subjects with AK on the dorsal forearm. This was an open-label, uncontrolled, nonrandomized, sequential group clinical trial conducted at a single investigational center in the United States. The primary objectives of the study were to assess the safety, tolerability and pharmacokinetics of KX-01 in subjects with AK. The secondary objective was to evaluate the activity of KX-01 administered topically to the dorsal forearm in subjects with AK.
KX-01 was administered topically on treatment days. All subjects were monitored for safety and tolerability that included LSRs, AEs, vital signs, clinical laboratory tests, ECGs, and physical examinations at baseline and at pre-defined time points during treatment and follow-up on days 1, 2, 3, 4, 5, 8, 10, 17, 31 and 45.
LSRs (erythema, flaking/scaling, crusting, swelling, vesiculation/pustulation, erosion/ulceration) were assessed by the investigator or trained designee using a 4-point scale according to the protocol. The subject's assessment of the symptoms (stinging/burning, pruritus) associated with irritation of the treatment area was evaluated on a 4-point scale (0=none, 1=mild, 2=moderate, 3=severe). Subjects were queried for spontaneously reported AEs at each study visit before assessment of LSRs. LSRs and AEs were reported separately. All LSRs were to be followed to resolution or stabilization.

SMILES: O=C(Cc1ccc(-c2ccc(OCCN3CCOCC3)cc2)cn1)NCc1ccccc1 [KX-01]
- Crusting max score 0, number of subjects [1]: 1
- Crusting max score 1, number of subjects [1]: 7
- Crusting max score 2, number of subjects [1]: 0
- Crusting max score 3, number of subjects [1]: 0
- Crusting max score 4, number of subjects [1]: 0
- Erosions/ulcers max score 0, number of subjects [1]: 8
- Erosions/ulcers max score 1, number of subjects [1]: 0
- Erosions/ulcers max score 2, number of subjects [1]: 0
- Erosions/ulcers max score 3, number of subjects [1]: 0
- Erosions/ulcers max score 4, number of subjects [1]: 0
- Erythema max score 0, number of subjects [1]: 0
- Erythema max score 1, number of subjects [1]: 2
- Erythema max score 2, number of subjects [1]: 4
- Erythema max score 3, number of subjects [1]: 2
- Erythema max score 4, number of subjects [1]: 0
- Flaking/scaling max score 0, number of subjects [1]: 0
- Flaking/scaling max score 1, number of subjects [1]: 2
- Flaking/scaling max score 2, number of subjects [1]: 2
- Flaking/scaling max score 3, number of subjects [1]: 4
- Flaking/scaling max score 4, number of subjects [1]: 0
- Pruritus (subject-assessed) max score 0, number of subjects [1]: 2
- Pruritus (subject-assessed) max score 1, number of subjects [1]: 4
- Pruritus (subject-assessed) max score 2, number of subjects [1]: 1
- Pruritus (subject-assessed) max score 3, number of subjects [1]: 1
- Stinging (subject-assessed) max score 0, number of subjects [1]: 6
- Stinging (subject-assessed) max score 1, number of subjects [1]: 1
- Stinging (subject-assessed) max score 2, number of subjects [1]: 1
- Stinging (subject-assessed) max score 3, number of subjects [1]: 0
- Swelling max score 0, number of subjects [1]: 4
- Swelling max score 1, number of subjects [1]: 1
- Swelling max score 2, number of subjects [1]: 0
- Swelling max score 3, number of subjects [1]: 3
- Swelling max score 4, number of subjects [1]: 0
- Vesicles/pustules max score 0, number of subjects [1]: 8
- Vesicles/pustules max score 1, number of subjects [1]: 0
- Vesicles/pustules max score 2, number of subjects [1]: 0
- Vesicles/pustules max score 3, number of subjects [1]: 0
- Vesicles/pustules max score 4, number of subjects [1]: 0
- Burning (subject-assessed) max score 0, number of subjects [2]: 4
- Burning (subject-assessed) max score 1, number of subjects [2]: 4
- Burning (subject-assessed) max score 2, number of subjects [2]: 0
- Burning (subject-assessed) max score 3, number of subjects [2]: 0
- Crusting max score 0, number of subjects [2]: 4
- Crusting max score 1, number of subjects [2]: 4
- Crusting max score 2, number of subjects [2]: 0
- Crusting max score 3, number of subjects [2]: 0
- Crusting max score 4, number of subjects [2]: 0
- Erosions/ulcers max score 0, number of subjects [2]: 7
- Erosions/ulcers max score 1, number of subjects [2]: 1
- Erosions/ulcers max score 2, number of subjects [2]: 0
- Erosions/ulcers max score 3, number of subjects [2]: 0
- Erosions/ulcers max score 4, number of subjects [2]: 0
- Erythema max score 0, number of subjects [2]: 0
- Erythema max score 1, number of subjects [2]: 2
- Erythema max score 2, number of subjects [2]: 4
- Erythema max score 3, number of subjects [2]: 2
- Erythema max score 4, number of subjects [2]: 0
- Flaking/scaling max score 0, number of subjects [2]: 0
- Flaking/scaling max score 1, number of subjects [2]: 2
- Flaking/scaling max score 2, number of subjects [2]: 4
- Flaking/scaling max score 3, number of subjects [2]: 2
- Flaking/scaling max score 4, number of subjects [2]: 0
- Pruritus (subject-assessed) max score 0, number of subjects [2]: 0
- Pruritus (subject-assessed) max score 1, number of subjects [2]: 4
- Pruritus (subject-assessed) max score 2, number of subjects [2]: 4
- Pruritus (subject-assessed) max score 3, number of subjects [2]: 0
- Stinging (subject-assessed) max score 0, number of subjects [2]: 5
- Stinging (subject-assessed) max score 1, number of subjects [2]: 3
- Stinging (subject-assessed) max score 2, number of subjects [2]: 0
- Stinging (subject-assessed) max score 3, number of subjects [2]: 0
- Swelling max score 0, number of subjects [2]: 1
- Swelling max score 1, number of subjects [2]: 6
- Swelling max score 2, number of subjects [2]: 1
- Swelling max score 3, number of subjects [2]: 0
- Swelling max score 4, number of subjects [2]: 0
- Vesicles/pustules max score 0, number of subjects [2]: 8
- Vesicles/pustules max score 1, number of subjects [2]: 0
- Vesicles/pustules max score 2, number of subjects [2]: 0
- Vesicles/pustules max score 3, number of subjects [2]: 0
- Vesicles/pustules max score 4, number of subjects [2]: 0
- Severity of TEAEs (all TEAEs): mild to moderate
- Local tolerability (all cohorts): acceptable
- Number of TEAEs (all cohorts): 10
- Subjects reporting treatment emergent adverse events (TEAEs) (all cohorts): Four of 30
- Subjects with a vesicle or pustule (all cohorts): No subject
- Subjects with an LSR score of 4 in any category (all cohorts): No subject
- Subjects with LSRs as assessed by the Investigator (all cohorts, 30 subjects): 30
- Day by which application-site symptoms resolved (human, in vivo): ≤ 45 days
- Nature of local skin reactions (human, in vivo): primarily mild
- Day LSRs appeared (in general): 2 days
- Subjects with erythema and/or flaking/scaling score 1 or 2 at day 45 (of 30 subjects): Fifteen
